In patent US20240180908A1, “TREATMENT OF KIDNEY DISEASES” (ACLIPSE ONE, INC., priority 2021, published 2024):

Experiments:
[1] = PAN-injury podocyte viability assay (Cell Titer-Glo); type: cell-based, human; conditions: human, no test compound, read-out: podocyte viability compared with untreated cells
Excerpt: (§1) Cell Culture. The human podocyte cell line (CIHP-1) is a […] isolated from human kidney. Podocytes are highly specialized, terminally differentiated cells with a complex cellular structure. They are a critical component of glomerular filtration. Cell cycle control, growth arrest and differentiation are key to the in vivo biology of podocytes. The conditionally immortalized podocyte cell line allows an in vitro process of maturation analogous to the development and maturation of podocytes in vivo. […] These include the novel podocyte proteins nephrin, podocin, CD2AP and synaptopodin. This robust cell line is extensively characterized and validated.
(§2) The growth medium of CIHP-1 cells (Ximbio) was RPMI 1640 with 10% fetal bovine serum (FBS), 1-fold of ITS (insulin-transferrin-selenium), and 1-fold Pen/Strep. The culture condition was 33° C. with 5% CO2. The cell detachment solution was Accutase® for 5 min at 33° C. The cell line passage ration was 1:3 every 3 or 4 days.
(§3) PAN-injury podocyte viability assay. Differentiated podocytes were either pretreated with dimethyl sulfoxide (DMSO) as vehicle, lobeglitazone, pioglitazone, rosiglitazone, or dexamethasone followed by puromycin aminonucleoside (PAN) treatment (5 μg/ml). Viability assays were performed after 3 or 5 days of treatments. […] For compound treatment, compounds were diluted to 20, 2, 0.2, 0.02 and 0.002 mM with DMSO. A volume of 1.8 μL of compounds was taken to 358.2 μL of culture medium and mixed. Media from plates were aspirated. A volume of 100 μL compound-added medium was added to each plate. Plates were placed in the incubator for 4 hours.
(§4) On day 0, CIHP-1 cells were seeded into two 96-well white plates using 5000 cell/well for 3 days (plate 1) or 2500 cell/well for 5 days (plate 2) treatment.
(§5) For compound treatment on Day 1, culture medium was aspirated. For each cell plate, 100 μl/well fresh medium with compounds was added for 4 hour. DMSO was used as control. After compound treatment for 4 hours, PAN was added to a final concentration of 5 μg/ml. No PAN treatment was used for the negative control. There was no medium change for the whole process.
(§6) On Day 4, for the first plate, Cell Titer-Glo (CTG) assay was used by adding 60 μl of CTG reagent into each well of the first plate, incubating at room temperature with shaking for 20 min, and then reading by the EnVision plate reader.
(§7) On Day 6, for the second plate, CTG assay was used by adding 60 μl of CTG reagent into each well of the second plate, incubating at RT with shaking for 20 min, and then reading by the EnVision plate reader.

[2] = system: human podocyte cell line (CIHP-1); test: as above; type: cell-based; conditions: for CIHP-1 proliferation by CTG, percentage compared to DMSO control (without PAN): 4 h pretreatment
Excerpt: as §1, §2, §3, §4, §5, §6, §7

[3] = compound 0.1 μM, PAN 5 μg/ml 3-day treatment
[4] = compound 0.1 μM, PAN 5 μg/ml 5-day treatment
[5] = compound 1 μM, PAN 5 μg/ml 3-day treatment
[6] = compound 1 μM, PAN 5 μg/ml 5-day treatment
[7] = compound 10 μM, PAN 5 μg/ml 3-day treatment
[8] = compound 10 μM, PAN 5 μg/ml 5-day treatment
[9] = compound 0.01 μM, PAN 5 μg/ml 3-day treatment
[10] = compound 0.01 μM, PAN 5 μg/ml 5-day treatment
[11] = compound 100 μM, PAN 5 μg/ml 3-day treatment
[12] = compound 100 μM, PAN 5 μg/ml 5-day treatment

SMILES	viability at 3 days, 5 μg/ml ([1]; 5 μg/ml PAN for 3 days) [%]	viability at 5 days, 5 μg/ml ([1]; 5 μg/ml PAN for 5 days) [%]	CIHP-1 proliferation by CTG, percentage compared to DMSO control (without PAN) [2, 3] [%]	CIHP-1 proliferation by CTG, percentage compared to DMSO control (without PAN) [2, 4] [%]	CIHP-1 proliferation by CTG, percentage compared to DMSO control (without PAN) [2, 5] [%]	CIHP-1 proliferation by CTG, percentage compared to DMSO control (without PAN) [2, 6] [%]	CIHP-1 proliferation by CTG, percentage compared to DMSO control (without PAN) [2, 7] [%]	CIHP-1 proliferation by CTG, percentage compared to DMSO control (without PAN) [2, 8] [%]	protection to PAN-injured podocytes ([2]; 0.01 to 100 μM, 3 days of PAN exposure)	improvement of podocyte viability ([2]; 0.01 to 100 μM, after 5 days of PAN injury)	CIHP-1 proliferation by CTG, percentage compared to DMSO control (without PAN) [2, 9] [%]	CIHP-1 proliferation by CTG, percentage compared to DMSO control (without PAN) [2, 10] [%]	CIHP-1 proliferation by CTG, percentage compared to DMSO control (without PAN) [2, 11] [%]	CIHP-1 proliferation by CTG, percentage compared to DMSO control (without PAN) [2, 12] [%]	concentration at which toxicity to the podocyte cells was observed ([2]; human, 3 days) [µM]
CN(C)c1ncnc2c1ncn2[C@@H]1O[C@H](CO)[C@@H](N)[C@H]1O [PAN, puromycin aminonucleoside]	70 to 80	30 to 40													
C[C@@H]1C[C@H]2[C@@H]3CCC4=CC(=O)C=C[C@]4(C)[C@@]3(F)[C@@H](O)C[C@]2(C)[C@@]1(O)C(=O)CO [dexamethasone]			79.9	34.2	73.9	34.9	74.7	33.6							
COc1ccc(Oc2cc(N(C)CCOc3ccc(CC4SC(=O)NC4=O)cc3)ncn2)cc1 (centres unmarked) [lobeglitazone, 5-(4-(2-((6-(4-Methoxyphenoxy)pyrimidin-4-yl)(methyl)amino)ethoxy)benzyl) thiazolidine-2,4-dione]			99.9	33.0	103.3	32.8	105	33.7	significant protection	did not show significant improvement	102.7	31.0	19.9	6.2	100
CCc1ccc(CCOc2ccc(CC3SC(=O)NC3=O)cc2)nc1 (centres unmarked) [pioglitazone]			101.3	38.3	97.3	30.0	94.3	33.4			102.4	35.2	90.9	22.4	
CN(CCOc1ccc(CC2SC(=O)NC2=O)cc1)c1ccccn1 (centres unmarked) [rosiglitazone]			76.0	32.7	74.5	33.6	69.2	29.1			72.4	32.6	69.6	15.0	
